Source: ChEMBL document CHEMBL1135603, “Modeling of binding modes and inhibition mechanism of some natural ligands of farnesyl transferase using molecular docking” (J Med Chem, 2002)

Assays:
[1] = molecular target: Protein farnesyltransferase (Rattus norvegicus, UniProt Q02293+Q04631); experiment: Inhibition of Farnesyltransferase; format: protein-complex assay
[2] = Partition coefficient (logP); format: physicochemical; settings: octanol/water

Structure (SMILES)	IC50 [1] [µM]	logP [2]
CC(C)CCCC(C)C1CCC2C3C(CC[C@]12C)[C@@](C)(CCC(=O)O)C(=O)C[C@@H]3C (some centres not stated)	0.9	–
CC(C)CCCC(C)C1CCC2C3CCC(=O)[C@](C)(C[C@@H](CC(=O)O)C(=O)O)C3CC[C@]12C (some centres not stated)	0.19	–
CC(=O)O[C@H]1CC[C@]2(C=O)[C@H](CC[C@@]3(C)[C@H]2C=C(C)[C@@]2(C)C(O)=C(C)C(=O)[C@]23C(=O)O)C1(C)C [ANDRASTATIN A]	24.9	1.7
CC(=O)O[C@H]1CC[C@]2(CO)[C@H](CC[C@@]3(C)[C@H]2C=C(C)[C@@]2(C)C(O)=C(C)C(=O)[C@]23C(=O)O)C1(C)C [ANDRASTATIN B]	47.1	1.6
CC(=O)O[C@H]1CC[C@]2(C)[C@H](CC[C@@]3(C)[C@H]2C=C(C)[C@@]2(C)C(O)=C(C)C(=O)[C@]23C(=O)O)C1(C)C [ANDRASTATIN C]	13.3	2.7
C=C1C(=O)O[C@@H]2[C@H]3C[C@@]4(C)C=CC3(CC43C(=O)O[C@@H]4C5C(C)=CC(=O)C5=C(C)C[C@H](CC(=O)CC(C)C)C43)[C@](C)(O)CC[C@@H]12 (some centres not stated) [ARTEMINOLIDE]	0.36	1.8
COC(=O)C1=CC(CO)=COc2oc3cccc(O)c3c(=O)c21 [FUSIDIENOL]	0.3	1.8
CC(C)=CCC/C(C)=C/CC/C(C)=C/CC/C(=C\C(=O)O)C(=O)O [SCHIZOSTATIN E]	–	1.3
CC(C)=CCC/C(C)=C/CC/C(C)=C/CC/C(=C/C(=O)O)C(=O)O [SCHIZOSTATIN Z]	300	1.4
C=C(CC[C@]12O[C@H](C(=O)O)[C@@](O)(C(=O)O)[C@](C(=O)O)(O1)[C@H](OC(=O)/C=C/[C@@H](C)C[C@@H](C)CC)[C@H]2O)[C@@H](OC(C)=O)[C@H](C)Cc1ccccc1 [ZARAGOZIC ACIDS A]	0.012	2
